Measured values from PMC12498288 (Frontiers in Immunology, 2025).
Like-named read-outs stand apart in the source and are kept apart here.

System: Vero cells
Conditions: Vero 24 h 5% FBS

O=C(O)c1ccc(F)c(F)c1Nc1ccc(I)cc1Cl [zapnometinib] was tested, and the “%LDH release compared to maximum LDH release” value (shortened to “%LDH release”) (0.39 µM) was 0.35%, the “%LDH release” value (0.78 µM) was 0.41% and the “%LDH release” value (1.56 µM) was 0.41%. The “%LDH release” value (3.13 µM) was -0.37%, the “%LDH release” value (6.25 µM) was 0.02% and the “%LDH release” value (12.50 µM) was 0.31%. For the same compound, the “%LDH release” value (25.00 µM) was 0.12%, the “%LDH release” value (50.00 µM) was 0.49% and the “%LDH release” value (75.00 µM) was 0.83%. The “%LDH release” value (100.00 µM) was 1.44%.
